The record followed here is US10226453B2, “3-(1H-indol-2-yl)-1H-pyrazolo[4,3-B]pyridines and therapeutic uses thereof” (Samumed, LLC, priority 2015, dated 2019).

What all share (assay type): cell-based
In one assay the test system is IL-6 (THP-1 cells). The experiment in a line: IL-6 inhibition in LPS-stimulated THP-1 human monocyte cells (HTRF). The note with it: LPS 500 ng/mL; for EC50: 22 hours, IL6 HTRF; for inhibition at 10 µM: given where EC50 >10 μM, read-out: percent inhibition at 10 μM. An outline of the steps:
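Readout is the 665/620 nm HTRF ratio for secreted IL-6, normalized to DMSO wells, with EC50 from a variable-slope four-parameter fit, or % inhibition at 10 μM when above 10 μM. Cells (1% FBS, 24 h beforehand) got compound for 2 h, then LPS 500 ng/mL for 22 h at 37° C; top dose 10 μM, 0.1% DMSO.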

For assay [1], the system named is Wnt activity (Sp5-Luc reporter, SW480 colon carcinoma cells). The assay is described as follows: Wnt activity screening assay: Sp5-Luc reporter gene in SW480 colon carcinoma cells. To be noted: Homo sapiens; for EC50: overnight incubation, 10-point curve from 10 μM; for inhibition at 10 µM: given where EC50 >10 μM, read-out: percent inhibition at 10 μM. An outline of the steps: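 First, hygromycin-selected SW480 Sp5-Luc reporter cells are seeded in medium with 1% fetal bovine serum and exposed overnight to compound (up to 10 μM, 0.1% DMSO). Next, luciferase signal is read by luminescence. Finally, EC50 is fitted, or percent inhibition at 10 μM is reported above 10 μM.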

Assay [2] relates to primary human mesenchymal stem cells (hMSCs). The experiment in a line: Induction of chondrogenesis in primary human mesenchymal stem cells (hMSCs), nodule count. To be noted: 144 h, 6 days; for EC50: concentration required to induce 50% levels of chondrogenesis of TGF-β3 control, read-out: Conc (nM) of 50% TGF-β3 activity; for Emax: relative to TGF-β3 (10 ng/mL) positive control, read-out: Max. Activity as % TGF-β3 activity. As to the method:
Representative compounds were screened using primary human mesenchymal stem cells (hMSCs) to determine their ability to induce chondrogenesis (process by which cartilage is developed).
Primary human mesenchymal stem cells (hMSCs) were purchased from Lonza (Walkersville, Md.) and expanded in Mesenchymal Stem Cell Growth Media (Lonza). Cells between passage 3 and 6 were used for the experiments.
Each compound was dissolved in DMSO as a 10 mM stock and used to prepare compound source plates. Serial dilution (1:3, 6-point dose-response curves from 2700 nM to 10 nM) and compound transfer was performed using the ECHO 550 (Labcyte, Sunnyvale, Calif.) into 96-well clear bottom assay plates (Greiner Bio-One) with appropriate DMSO backfill for a final DMSO concentration of 0.03%. hMSCs were plated at 20,000 cells/well in 250 μL/well Incomplete Chondrogenic Induction Medium (Lonza; DMEM, dexamethasone, ascorbate, insulin-transferrin-selenium [ITS supplement], gentamycin-amphotericin [GA-1000], sodium pyruvate, proline and L-glutamine). TGF-β3 (10 ng/mL) was used as a positive control for differentiation while negative control wells were treated with 75 nL DMSO for normalization and calculating EC50 values. Cells were incubated at 37° C. and 5% CO2 for 6 days. To image chondrogenic nodules, the cells were fixed using 4% formaldehyde (Electron Microscopy Sciences), and stained with 2 μg/mL Rhodamine B (Sigma-Aldrich) and 20 μM Nile Red (Sigma-Aldrich) [Johnson K., et. al, A Stem Cell-Based Approach to Cartilage Repair, Science, (2012). 336(6082), 717-721]. The nodules imaged (4 images per well at 4× magnification) by excitation at 531 nm and emission at 625 nm and quantified using the CellInsight CX5 (Thermo Scientific). Number of nodules in each well was normalized to the average of 3 DMSO treated wells on the same plate using Excel (Microsoft Inc.). The normalized averages (fold change over DMSO) of 3 replicate wells for each compound concentration were calculated. Due to solubility limitations of some of the compounds, curve fitting was incomplete leading to inaccurate EC50 determinations.
Using TGF-β3 as a positive control, the concentration of representative compounds required to induce 50% levels of chondrogenesis is reported. In addition, the maximum activity of each compound and the respective dose that each compound reached maximum chondrogenesis activity is reported.

With `CC(C)(C)C(=O)Nc1cncc(-c2ccc3[nH]nc(-c4cc5c(-c6cccc(F)c6)cccc5[nH]4)c3n2)c1` [Compound 8, N-(5-(3-(4-(3-Fluorophenyl)-1H-indol-2-yl)-1H-pyrazolo[4,3-b]pyridin-5-yl)pyridin-3-yl)pivalamide], the EC50 in the assay with IL-6 (THP-1 cells) came out at 2720 nM; in assay [1] it was 2930 nM.

Turning to `CN(C)Cc1cncc(-c2ccc3[nH]nc(-c4cc5c(-c6ccc(F)cc6)cccc5[nH]4)c3n2)c1` [Compound 41, 1-(5-(3-(4-(4-Fluorophenyl)-1H-indol-2-yl)-1H-pyrazolo[4,3-b]pyridin-5-yl)pyridin-3-yl)-N,N-dimethylmethanamine], the EC50 was 10 nM in assay [2], 549 nM in the assay with IL-6 (THP-1 cells) and 362 nM in assay [1]. Besides, in assay [2], the Emax was found to be 93%.

Consider `Fc1ccc(-c2cccc3[nH]c(-c4n[nH]c5ccc(-c6cncnc6)nc45)cc23)cc1` [Compound 55, 3-(4-(4-Fluorophenyl)-1H-indol-2-yl)-5-(pyrimidin-5-yl)-1H-pyrazolo[4,3-b] pyridine], for which the EC50 worked out at 103 nM in the assay on IL-6 (THP-1 cells) and 1310 nM in assay [1].

On to `Fc1ccccc1-c1cccc2[nH]c(-c3n[nH]c4ccc(-c5cncc(CN6CCCCC6)c5)nc34)cc12` [Compound 71, 3-(4-(2-Fluorophenyl)-1H-indol-2-yl)-5-(5-(piperidin-1-ylmethyl)pyridin-3-yl)-1H-pyrazolo[4,3-b]pyridine], for which the EC50 worked out at 100 nM in assay [2], 271 nM in the assay on IL-6 (THP-1 cells) and 663 nM in assay [1]. In addition, the Emax in assay [2] was found to be 96%.

The compound `Fc1ccccc1-c1cccc2[nH]c(-c3n[nH]c4ccc(-c5cncc(CNCc6ccccc6)c5)nc34)cc12` [Compound 80, N-Benzyl-1-(5-(3-(4-(2-fluorophenyl)-1H-indol-2-yl)-1H-pyrazolo[4,3-b]pyridin-5-yl)pyridin-3-yl)methanamine] yielded an EC50 in the assay on IL-6 (THP-1 cells) of 6730 nM. In assay [1], the inhibition at 10 µM was found to be 44% and the EC50 was greater than 10000 nM.

In the case of `c1cncc(-c2ccc3[nH]nc(-c4cc5c(-c6cccnc6)cccc5[nH]4)c3n2)c1` [Compound 88, 5-(Pyridin-3-yl)-3-(4-(pyridin-3-yl)-1H-indol-2-yl)-1H-pyrazolo[4,3-b] pyridine], the EC50 was determined as 900 nM in assay [2], 31 nM in the assay with IL-6 (THP-1 cells) and 185 nM in assay [1]. The Emax in assay [2] was determined as 386%.

`CN(C)Cc1cncc(-c2ccc3[nH]nc(-c4cc5c(-c6cccnc6)cccc5[nH]4)c3n2)c1` [Compound 97, N,N-Dimethyl-1-(5-(3-(4-(pyridin-3-yl)-1H-indol-2-yl)-1H-pyrazolo[4,3-b]pyridin-5-yl)pyridin-3-yl)methanamine]: in assay [2], the Emax was 36%. For the same compound, the EC50 in the assay on IL-6 (THP-1 cells) is 154 nM; in assay [1], 415 nM.

Regarding `Nc1cncc(-c2ccc3[nH]nc(-c4cc5c(-c6ccncc6)cccc5[nH]4)c3n2)c1` [Compound 115, 5-(3-(4-(Pyridin-4-yl)-1H-indol-2-yl)-1H-pyrazolo[4,3-b]pyridin-5-yl) pyridin-3-amine], the EC50 came out at 900 nM in assay [2], 52 nM in the assay on IL-6 (THP-1 cells) and 67 nM in assay [1]. For the same compound, in assay [2], the Emax was 165%.

`Cc1ccncc1-c1ccc2[nH]nc(-c3cc4c(-c5ccncc5)cccc4[nH]3)c2n1` [Compound 117, 5-(4-Methylpyridin-3-yl)-3-(4-(pyridin-4-yl)-1H-indol-2-yl)-1H-pyrazolo [4,3-b]pyridine]: the EC50 in assay [2] was found to be 900 nM; in the assay with IL-6 (THP-1 cells), 21 nM; in assay [1], 299 nM. The Emax in assay [2] worked out at 703%.

With `c1cc(-c2ccncc2)c2cc(-c3n[nH]c4ccc(-c5cncc(CNCC6CCCC6)c5)nc34)[nH]c2c1` [Compound 137, 1-Cyclopentyl-N-((5-(3-(4-(pyridin-4-yl)-1H-indol-2-yl)-1H-pyrazolo[4,3-b]pyridin-5-yl)pyridin-3-yl)methyl)methanamine], the results for the EC50 (in the assay on IL-6 (THP-1 cells); in assay [1]) were 3240 nM and 7160 nM, respectively.

Take `c1ccc(-c2ccc3[nH]nc(-c4cc5c(-c6ccncc6)cccc5[nH]4)c3n2)nc1` [Compound 140, 5-(Pyridin-2-yl)-3-(4-(pyridin-4-yl)-1H-indol-2-yl)-1H-pyrazolo[4,3-b] pyridine]: the EC50 in the assay on IL-6 (THP-1 cells) stood at 249 nM; in assay [1], 3060 nM.

In the case of `c1ccc(-c2ccc3[nH]nc(-c4cc5c(N6CCCCC6)cccc5[nH]4)c3n2)nc1` [Compound 196, 3-(4-(Piperidin-1-yl)-1H-indol-2-yl)-5-(pyridin-2-yl)-1H-pyrazolo[4,3-b] pyridine], in the assay on IL-6 (THP-1 cells), the EC50 came out at 1860 nM. Besides, in assay [1], the inhibition at 10 µM came to 6.2% and the EC50 was greater than 10000 nM.

As to `c1cncc(-c2ccc3[nH]nc(-c4cc5ccccc5[nH]4)c3n2)c1` [Compound 256, 3-(1H-Indol-2-yl)-5-(pyridin-3-yl)-1H-pyrazolo[4,3-b]pyridine], the EC50 in the assay with IL-6 (THP-1 cells) was 13 nM; in assay [1], 1300 nM.

Take `FC1(F)CCN(Cc2cncc(-c3ccc4[nH]nc(-c5cc6c(-c7cccs7)cccc6[nH]5)c4n3)c2)C1` [Compound 362, 5-(5-((3,3-Difluoropyrrolidin-1-yl)methyl)pyridin-3-yl)-3-(4-(thiophen-2-yl)-1H-indol-2-yl)-1H-pyrazolo[4,3-b]pyridine]: the EC50 in the assay with IL-6 (THP-1 cells) was determined as 6340 nM; in assay [1], 3240 nM.

As for `Nc1cncc(-c2ccc3[nH]nc(-c4cc5ncccc5[nH]4)c3n2)c1` [Compound 507, 5-(3-(1H-Pyrrolo[3,2-b]pyridin-2-yl)-1H-pyrazolo[4,3-b]pyridin-5-yl) pyridin-3-amine], the figures for the EC50 (with IL-6 (THP-1 cells); in assay [1]) were 8 nM and 256 nM, respectively.

As for `Fc1cccc(-c2cccc3[nH]c(-c4n[nH]c5ccc(-c6cncc(OCc7ccccc7)c6)nc45)cc23)c1` [Compound 546, 5-(5-(Benzyloxy)pyridin-3-yl)-3-(4-(3-fluorophenyl)-1H-indol-2-yl)-1H-pyrazolo[4,3-b]pyridine], the EC50 in the assay with IL-6 (THP-1 cells) came to 2910 nM; in assay [1], 2660 nM.

Turning to `c1cc(-c2ccoc2)c2cc(-c3n[nH]c4ccc(-c5cn[nH]c5)nc34)[nH]c2c1` [Compound 711, 3-(4-(Furan-3-yl)-1H-indol-2-yl)-5-(1H-pyrazol-4-yl)-1H-pyrazolo[4,3-b] pyridine], the results for the EC50 (in the assay with IL-6 (THP-1 cells); in assay [1]) were 72 nM and 8160 nM, respectively.

As to `c1cc(-c2ccoc2)c2cc(-c3n[nH]c4ccc(-c5cncc(OC6CCCCC6)c5)nc34)[nH]c2c1` [Compound 715, 5-(5-(Cyclohexyloxy)pyridin-3-yl)-3-(4-(furan-3-yl)-1H-indol-2-yl)-1H-pyrazolo[4,3-b]pyridine], in the assay with IL-6 (THP-1 cells), the EC50 is greater than 10000 nM and the inhibition at 10 µM is 36.2%. In addition, the EC50 in assay [1] turned out to be 6490 nM.

Consider `Oc1cncc(-c2ccc3[nH]nc(-c4cc5c(-c6cccs6)cccc5[nH]4)c3n2)c1` [Compound 737, 5-(3-(4-(Thiophen-2-yl)-1H-indol-2-yl)-1H-pyrazolo[4,3-b]pyridin-5-yl) pyridin-3-ol], for which, in the assay on IL-6 (THP-1 cells), the EC50 worked out at 347 nM. For the same compound, in assay [1], the inhibition at 10 µM was 3.3% and the EC50 is greater than 10000 nM.

`c1cnc2cc(-c3n[nH]c4ccc(-c5cn[nH]c5)nc34)[nH]c2c1` [Compound 1021, 5-(1H-Pyrazol-4-yl)-3-(1H-pyrrolo[3,2-b]pyridin-2-yl)-1H-pyrazolo[4,3-b] pyridine]: in the assay with IL-6 (THP-1 cells), the EC50 was greater than 10000 nM and the inhibition at 10 µM came to 0%. Further, in assay [1], the EC50 stood at 767 nM.

In the case of `Oc1cncc(-c2ccc3[nH]nc(-c4cc5ncccc5[nH]4)c3n2)c1` [Compound 1031, 5-(3-(1H-Pyrrolo[3,2-b]pyridin-2-yl)-1H-pyrazolo[4,3-b]pyridin-5-yl) pyridin-3-ol], the EC50 in the assay on IL-6 (THP-1 cells) was 91 nM; in assay [1], 883 nM.
